Reference: PubChem BioAssay (NCI)
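Protocol summary: plate cells (96-well), add compound at 5 concentrations, incubate 48 h, interpolate endpoints linearly. GI50 is the concentration that inhibits growth by half. At the TGI there is no net growth.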

Columns and labels:
Experiment in all cases: NCI anticancer screen, dose series, 48 h
A498 renal = test system: A498 renal
MALME-3M melanoma = test system: MALME-3M melanoma
HCT-116 colon = test system: HCT-116 colon
PC-3 prostate = test system: PC-3 prostate
SW-620 colon = test system: SW-620 colon
BT-549 breast = test system: BT-549 breast
LOX IMVI melanoma = test system: LOX IMVI melanoma
HOP-92 NSCLC = test system: HOP-92 NSCLC
MCF7 breast = test system: MCF7 breast
HS 578T breast = test system: HS 578T breast
SR leukemia = test system: SR leukemia
A549 NSCLC = test system: A549 NSCLC
SN12C renal = test system: SN12C renal
HL-60(TB) leukemia = test system: HL-60(TB) leukemia
786-0 renal = test system: 786-0 renal
DU-145 prostate = test system: DU-145 prostate
HOP-62 NSCLC = test system: HOP-62 NSCLC
MOLT-4 leukemia = test system: MOLT-4 leukemia
SK-MEL-2 melanoma = test system: SK-MEL-2 melanoma
RPMI-8226 leukemia = test system: RPMI-8226 leukemia
SNB-19 CNS = test system: SNB-19 CNS
MDA-MB-435 = test system: MDA-MB-435
OVCAR-4 ovarian = test system: OVCAR-4 ovarian
HCC-2998 colon = test system: HCC-2998 colon
MDA-MB-231 breast = test system: MDA-MB-231 breast
SK-MEL-28 melanoma = test system: SK-MEL-28 melanoma
OVCAR-5 ovarian = test system: OVCAR-5 ovarian
UACC-257 melanoma = test system: UACC-257 melanoma
KM12 colon = test system: KM12 colon

O=C1C(c2ccccc2)=C(N2CCc3ccccc32)OC1(Cl)Cl
TGI (A498 renal): 14.6 µM
GI50 (MALME-3M melanoma): 1.89 µM
TGI (MALME-3M melanoma): 4.38 µM
GI50 (HCT-116 colon): 1.58 µM
TGI (HCT-116 colon): 8.04 µM
GI50 (PC-3 prostate): 4.03 µM
TGI (PC-3 prostate): 54.6 µM
GI50 (SW-620 colon): 1.57 µM
TGI (SW-620 colon): 4.21 µM
GI50 (BT-549 breast): 2.15 µM
TGI (BT-549 breast): 6.26 µM
GI50 (LOX IMVI melanoma): 1.65 µM
TGI (LOX IMVI melanoma): 3.63 µM
GI50 (HOP-92 NSCLC): 1.81 µM
TGI (HOP-92 NSCLC): 5.21 µM
GI50 (MCF7 breast): 2.29 µM
TGI (MCF7 breast): 9.59 µM
GI50 (HS 578T breast): 2.99 µM
TGI (HS 578T breast): > 100 µM
GI50 (SR leukemia): 1.67 µM
TGI (SR leukemia): 5.92 µM
GI50 (A549 NSCLC): 4.71 µM
TGI (A549 NSCLC): 32.7 µM
GI50 (SN12C renal): 2.7 µM
TGI (SN12C renal): 8.58 µM
GI50 (HL-60(TB) leukemia): 2.21 µM
TGI (HL-60(TB) leukemia): 5.62 µM
GI50 (786-0 renal): 1.82 µM
TGI (786-0 renal): 4.21 µM
GI50 (DU-145 prostate): 1.97 µM
TGI (DU-145 prostate): 3.9 µM
GI50 (HOP-62 NSCLC): 12.2 µM
TGI (HOP-62 NSCLC): 35.8 µM
GI50 (MOLT-4 leukemia): 1.86 µM
TGI (MOLT-4 leukemia): 5.13 µM
GI50 (SK-MEL-2 melanoma): 3.57 µM
TGI (SK-MEL-2 melanoma): 18.6 µM
GI50 (RPMI-8226 leukemia): 2.36 µM
TGI (RPMI-8226 leukemia): 6.09 µM
GI50 (SNB-19 CNS): 5.27 µM
TGI (SNB-19 CNS): 22.9 µM
GI50 (MDA-MB-435): 3.26 µM
TGI (MDA-MB-435): 11.4 µM
GI50 (OVCAR-4 ovarian): 3.38 µM
TGI (OVCAR-4 ovarian): 13.6 µM
GI50 (HCC-2998 colon): 2.91 µM
TGI (HCC-2998 colon): 8.88 µM
GI50 (MDA-MB-231 breast): 2.89 µM
TGI (MDA-MB-231 breast): 9.09 µM
GI50 (SK-MEL-28 melanoma): 2.27 µM
TGI (SK-MEL-28 melanoma): 4.99 µM
GI50 (OVCAR-5 ovarian): 3.57 µM
TGI (OVCAR-5 ovarian): 10.4 µM
GI50 (UACC-257 melanoma): 2.53 µM
TGI (UACC-257 melanoma): 8.28 µM
GI50 (KM12 colon): 5.13 µM
TGI (KM12 colon): 18.8 µM
